Patent publication US20140128272A1, “Method for Inducing Dormancy of Cancer Tissue-Derived Cell Mass and Method for Evaluating Treating Means with the Use of Cancer-Tissue-Derived Cell Mass” (Osaka Prefectural Hospital Organization, priority 2012, published 2014)

Tests used:
[1] = system: cancer tissue-derived cell mass (sample C45, human colon cancer); test: in vitro drug sensitivity test with cancer tissue-derived cell mass, normal versus dormant state; assay type: cell-based; settings: day 7, 5-FU and oxaliplatin 0.01-10 μg/ml, SN38 0.001-1 ng/ml, FIG. 6; for response of cancer tissue-derived cell mass to drug concentration (relative increase rate of area, no drug = 1): dormant state (dormancy medium); for proliferation of cancer cells in the cancer tissue-derived cell mass (relative increase rate of area, no drug = 1): normal culture conditions (StemPro hESC SFM medium)
Protocol: Using SN38,5-FU, and oxaliplatin known as anti-cancer agents, a drug sensitivity test was performed with C45 sample of Example 2. The test was proceeded by culturing the C45 obtained in example 2, in 1 cc of a dormancy medium or StemPro hESC SFM (Gibco; A10007-01) medium. Further, as to each drug, 5-FU and oxaliplatin were applied at concentrations of 0.01 μg/ml, 0.1 μg/ml, 1 μg/ml, and 10 μg/ml, and SN38 was applied at concentrations of 0.001 ng/ml, 0.01 ng/ml, 0.1 ng/ml, and 1 ng/ml, and comparative evaluation of the culture state was performed on day 7 after each culture. An increase rate of the area of the cancer tissue-derived cell mass was relatively expressed when the increase rate of the area under culture with no drug application was expressed as 1.

[2] = system: cancer tissue-derived cell mass (sample C45, human colon cancer); test: effect of growth factors on proliferation of cancer tissue-derived cell mass under 1% oxygen; assay type: cell-based; settings: added to dormancy medium under hypoxic conditions (1% oxygen); heregulin 10 ng/ml, IGF 200 ng/ml, or both; FIG. 4
Protocol: The cancer tissue-derived cell mass obtained in Example 2 was purified as a composition and cultured in a dormancy medium (20 ml): DMEM/F12 with GlutaMAX (Invitrogen) 18.5 ml, 25% BSA (Invitrogen) 1.44 ml, and 2ME Stock […] in a 6 cm non-treated dish (EIKEN CHEMICAL: AG2000) in a personal gas incubator (APM-30D, ASTEC Co., Ltd.) or INVIVO2 400 (RUSKINN) for 15 days at 37° C. under the conditions of an oxygen concentration of 1%.

| Molecule | response of cancer tissue-derived cell mass to drug concentration (relative increase rate of area, no drug = 1) [1] | proliferation of cancer cells in the cancer tissue-derived cell mass (relative increase rate of area, no drug = 1) [1] | growth of the cancer tissue-derived cell mass [2] |
| --- | --- | --- | --- |
| O=c1[nH]cc(F)c(=O)[nH]1 [5-FU] | did not respond to the concentration of drugs at all or responded little to it | suppressed | – |
| CCc1c2c(nc3ccc(O)cc13)-c1cc3c(c(=O)n1C2)COC(=O)[C@]3(O)CC [SN38] | did not respond to the concentration of drugs at all or responded little to it | suppressed | – |
| O=C1[O][Pt]2([NH][C@@H]3CCCC[C@H]3[NH]2)[O]C1=O [oxaliplatin] | did not respond to the concentration of drugs at all or responded little to it | suppressed | – |
| heregulin | – | – | grew up rapidly |
| insulin-like growth factor [IGF] | – | – | grew up rapidly |
